Assay results: patent US10308607B2, “Fucosidase inhibitors” (HORIZON ORPHAN LLC, priority 2015, dated 2019)
Several values for one entry are separate records, joined by “and”; a condition that tells them apart may be missing. Equal values may be shown once. Read-outs that look alike come from different tables or passages of the source.

How the values were obtained:
[1] = Multiplexed cytotoxicity assay; type: cell-based, human; conditions: human, HepG2 cells (liver carcinoma), read-out: Cytotoxic EC50
Method: (§1) To assess the cytotoxicity of compound II (see Example 2) in cancer and normal cells, the cells were grown in RPMI1640, 10% FBS, 2 mM L-alanyl-L-Glutamine, 1 mM Na Pyruvate or a special medium in a humidified atmosphere of 5% CO2 at 37° C. Cells were seeded into 384-well plates and incubated in a humidified atmosphere of 5% CO2 at 37° C. Compound II was added 24 hours post cell seeding. At the same time, a time zero untreated cell plate was generated.
(§2) After a 72 hour incubation period, cells were fixed and stained with fluorescently labeled antibodies and nuclear dye to allow visualization of nuclei, apoptotic cells and mitotic cells. Apoptotic cells were detected using an anti-active caspase-3 antibody. Mitotic cells were detected using an anti phospho-histone-3 antibody.
(§3) Compound II was serially diluted 3.16-fold and assayed over 9 concentrations. Automated fluorescence microscopy was carried out using a GE Healthcare IN Cell Analyzer 1000, and images were collected with a 4× objective.
(§4) Twelve bit tiff images were acquired using the InCell Analyzer 1000 3.2 and analyzed with Developer Toolbox 1.6 software. EC50 and IC50 values were calculated using nonlinear regression to fit data to a sigmoidal 4 point, 4 parameter One-Site dose response model, where: y (fit)=A+[(B−A)/(1+((C/x)^D))]. […]

[2] = system: HepG2; test: Multiplexed cytotoxicity assay; type: cell-based, human; conditions: HepG2, liver carcinoma, 72 hour
Method: as §1, §2, §3, §4

[3] = Biodistribution in mouse liver and colon; type: in vivo; conditions: for Conc. of cmpd II in colon / Mean conc. of cmpd II in colon: mouse colon; for Conc. of cmpd II in colon / Conc. of cmpd II in liver: individual animal; for Conc. of cmpd II in liver / Mean conc. of cmpd II in liver: mouse liver
Method: To assess the biodistribution of compound II (see Example 2) in mouse liver and colon, compound II was administered intravenously at a dosage of 1 mg/kg.

[4] = system: HT-1080; test: Multiplexed cytotoxicity assay; type: cell-based; conditions: HT-1080, connective sarcoma, 72 hour
Method: as §1, §2, §3
(§5) Twelve bit tiff images were acquired using the InCell Analyzer 1000 3.2 and analyzed with Developer Toolbox 1.6 software. EC50 and IC50 values were calculated using nonlinear regression to fit data to a sigmoidal 4 point, 4 parameter One-Site dose response model, where: y (fit)=A+[(B−A)/(1+((C/x)^D))]. Curve-fitting, EC50/IC50 calculations and report generation are performed using a custom data reduction engine MathIQ based software (AIM).
(§6) The multiplexed cytotoxicity assay uses a cell image based analysis technique where cells are fixed and stained with fluorescently labeled antibodies and nuclear dye to visualize nuclei, and apoptotic and mitotic cells. Apoptotic cells are detected using an anti-active caspase-3 antibody. Mitotic cells are detected using an anti phospho-histone-3 antibody. Cell proliferation is measured by the signal intensity of the incorporated nuclear dye. The cell proliferation assay output is referred to as the relative cell count. To determine the cell proliferation end point, the cell proliferation data output is transformed to percent of control (POC) using the following formula: POC=relative cell count(compound wells)/relative cell count(vehicle wells)×100.
(§7) Relative cell count IC50 is the test compound concentration at 50% of maximal possible response. A relative cell count EC50 is the test compound concentration at the curve inflection point or half the effective response (parameter C of the fitted curve solution). GI50 is the concentration needed to reduce the observed growth by half. This is the concentration that inhibits the growth midway between untreated cells and the number of cells seeded in the well (Time zero value).
(§8) The activated caspase-3 marker labels cells from early to late stage apoptosis. The output is shown as a fold increase of apoptotic cells over vehicle background normalized to the relative cell count in each well. Concentrations of test compound that cause a 5-fold induction in the caspase-3 signal indicates significant apoptosis induction. Wells with concentrations higher than the relative cell count IC95 are eliminated from the caspase3 induction analysis.
(§9) The phospho-histone-3 marker labels mitotic cells. The output is shown as a fold induction of mitotic cells over vehicle background normalized to the relative cell count in each well. When the fold induction of mitotic cell signal over background is ˜1, there is “no effect” on the cell cycle. Two or more fold increase in phospho-histone-3 signal over vehicle background indicates significant test compound induction of mitotic block.
(§10) Two or more fold decrease in the phospho-histone-3 signal may indicate G1/S block only when cytotoxicity levels are below the measured relative cell count IC95. […]

[5] = Multiplexed cytotoxicity assay; type: cell-based; conditions: human, read-out: Cytotoxic EC50
Method: as §1, §2, §3, §5, §6, §7, §8, §9, §10

[6] = system: K562; test: Multiplexed cytotoxicity assay; type: cell-based; conditions: K562, blood leukemia, 72 hour
Method: as §1, §2, §3, §5, §6, §7, §8, §9, §10

[7] = system: NHDF; test: Multiplexed cytotoxicity assay; type: cell-based; conditions: normal skin, 72 hour
Method: as §1, §2, §3, §5, §6, §7, §8, §9, §10

[8] = system: U-87 MG; test: Multiplexed cytotoxicity assay; type: cell-based; conditions: brain blastoma, 72 hour
Method: as §1, §2, §3, §5, §6, §7, §8, §9, §10

[9] = system: HUMSC; test: Multiplexed cytotoxicity assay; type: cell-based; conditions: normal mesenchymal stem, 72 hour
Method: as §1, §2, §3, §5, §6, §7, §8, §9, §10

[10] = system: BxPC-3; test: Multiplexed cytotoxicity assay; type: cell-based; conditions: BxPC-3, pancreas carcinoma, 72 hour
Method: as §1, §2, §3, §5, §6, §7, §8, §9, §10

[11] = system: HUVEC; test: Multiplexed cytotoxicity assay; type: cell-based; conditions: normal endothelium, 72 hour
Method: as §1, §2, §3, §5, §6, §7, §8, §9, §10

[12] = system: A549; test: Multiplexed cytotoxicity assay; type: cell-based; conditions: A549, lung carcinoma, 72 hour
Method: as §1, §2, §3, §5, §6, §7, §8, §9, §10

[13] = system: SKOV3; test: Multiplexed cytotoxicity assay; type: cell-based; conditions: SKOV3, ovary carcinoma, 72 hour
Method: as §1, §2, §3, §5, §6, §7, §8, §9, §10

[14] = system: HRPTEpiC; test: Multiplexed cytotoxicity assay; type: cell-based; conditions: normal renal, 72 hour
Method: as §1, §2, §3, §5, §6, §7, §8, §9, §10

[15] = system: HeLa; test: Multiplexed cytotoxicity assay; type: cell-based; conditions: cervix carcinoma, 72 hour
Method: as §1, §2, §3, §5, §6, §7, §8, §9, §10

[16] = system: HPH; test: Multiplexed cytotoxicity assay; type: cell-based; conditions: normal primary hepatocyte, 72 hour
Method: as §1, §2, §3, §5, §6, §7, §8, §9, §10

SMILES: C[C@@H]1N[C@H](CNC(=O)c2cccc3c2C(=O)c2ccccc2-3)[C@@H](O)[C@H](O)[C@@H]1O [Compound II]
- EC50 at 72 h [1]: 44 µM
- G1/S arrest [2]: 36 µM
- Conc. of cmpd II in colon ([3]; IV 1 mg/kg qdx1, 1 h): 1770 ng/g and 1640 ng/g and 1930 ng/g
- Mean conc. of cmpd II in colon ([3]; IV 1 mg/kg qdx1, 1 h): 1780 ng/g
- Conc. of cmpd II in colon ([3]; IV 1 mg/kg qdx1, 8 h): 638 ng/g and 289 ng/g and 872 ng/g
- Mean conc. of cmpd II in colon ([3]; IV 1 mg/kg qdx1, 8 h): 600 ng/g
- Conc. of cmpd II in liver ([3]; IV 1 mg/kg qdx1, 1 h): 298 ng/g and 301 ng/g and 188 ng/g
- Mean conc. of cmpd II in liver ([3]; IV 1 mg/kg qdx1, 1 h): 262 ng/g
- Conc. of cmpd II in liver ([3]; IV 1 mg/kg qdx1, 8 h): 9.03 ng/g and 7.64 ng/g and 12.9 ng/g
- Mean conc. of cmpd II in liver ([3]; IV 1 mg/kg qdx1, 8 h): 9.86 ng/g
- G1/S arrest [4]: 78 µM
- EC50 at 72 h ([5]; A549 cells (lung carcinoma)): 29 µM
- EC50 at 72 h ([5]; BxPC-3 cells (pancreas carcinoma), BxPC-3, pancreas carcinoma): 43 µM
- EC50 at 72 h ([5]; HPH (normal primary hepatocytes), normal primary hepatocyte): > 100 µM
- EC50 at 72 h ([5]; HRPTEpiC cells (normal renal)): 72 µM
- EC50 at 72 h ([5]; HT-29 cells (colon carcinoma), HT-29, colon carcinoma): 31 µM
- EC50 at 72 h ([5]; HT-1080 cells (connective sarcoma), HT-1080, connective sarcoma): 21 µM
- EC50 at 72 h ([5]; HUMSC cells (normal mesenchymal stem cells)): 9 µM
- EC50 at 72 h ([5]; HUVEC cells (normal endothelium)): 14 µM
- EC50 at 72 h ([5]; HeLa cells (cervix carcinoma)): 47 µM
- EC50 at 72 h ([5]; K562 cells (blood leukemia)): 98 µM
- EC50 at 72 h ([5]; LNCaP cells (prostate carcinoma)): 54 µM
- EC50 at 72 h ([5]; MDA-MB-231 cells (breast carcinoma), MDA-MB-231, breast carcinoma): 44 µM
- EC50 at 72 h ([5]; NHDF cells (normal skin)): 22 µM
- EC50 at 72 h ([5]; SKOV3 cells (ovary carcinoma)): > 100 µM
- EC50 at 72 h ([5]; SNU-423 cells (liver carcinoma), SNU-423, liver carcinoma): > 100 µM
- EC50 at 72 h ([5]; U-87 MG cells (brain blastoma)): 34 µM
- G1/S arrest [6]: 93 µM
- G1/S arrest [7]: 14 µM
- G1/S arrest [8]: 26 µM
- G1/S arrest [9]: 10 µM
- G1/S arrest [10]: 55 µM
- G1/S arrest [11]: 14 µM
- G1/S arrest [12]: 21 µM
- G1/S arrest [13]: 98 µM
- G1/S arrest [14]: 10 µM
- G1/S arrest [15]: 70 µM
- Primary effect [16]: no effect
